# doi:10.1101/2023.02.27.530254, “Large library docking for cannabinoid-1 receptor agonists with reduced side effects” (bioRxiv, 2024)
# Where “and” joins values, the source holds several entries; their conditions need not be identical. Equal entries are not always repeated.
# Experiments:
# C56BL/6 mice [1] = test: Open field test of hypolocomotion; type: in vivo, mouse; details: for motor effect versus vehicle at analgesic doses: open field and rotarod tests
# Experimental: Thirty minutes after i.p. injection, mice were placed in the center of a round open-field (2 feet diameter) and their exploratory behavior recorded over the next 15 minutes. Distance traveled was used to represent open field behavior.
# C56BL/6 mice [2] = test: Acetone test of cold allodynia after SNI; type: in vivo, mouse; details: for effect on SNI-induced cold allodynia (number of paw withdrawals): acetone test
# Experimental: Under isoflurane anesthesia, two of the three branches of the sciatic nerve were ligated and transected distally, leaving the sural nerve intact. Behavior was tested 7 to 14 days after injury.
# Mice were placed on a wire mesh and thirty min after an i.p. injection of the compounds we applied a drop (50 μL) of acetone on the ventral aspect of the hindpaw, 5 times every 30 sec. We recorded the number of nocifensive behaviors (paw lifts/licks/shakes/bites) over the 5 applications.
# C56BL/6 mice [3] = test: Conditioned place preference; details: mouse, in vivo
# Experimental: To determine if ‘4042 was inherently rewarding or aversive we used the conditioned place paradigm as described. Briefly, mice were first habituated to the test apparatus, twice, and their preference for each chamber recorded for 30 minutes (Pretest). Two conditioning days followed in which mice received the vehicle control or the compound, and 30 minutes later restricted for 30 minutes in the preferred or non-preferred chamber, respectively. On day 5 (Test day), mice were allowed to roam freely between the 3 chambers of the apparatus and their preference for each chamber recorded for 30 minutes. To calculate the CPP score, we subtracted the time spent in each chamber of the box on the Pretest day from that of the Test day (CPP score = Test - Pretest).
# C56BL/6 mice [4] = test: Catalepsy test (vertical wire mesh); type: in vivo, mouse; details: for cataleptic behavior: analgesic doses (0.2 or 0.5 mg/kg), 30 minutes or 1-hour post-injection; for concentration window between anti-allodynia or analgesia versus catalepsy and sedation, maximum: depending on the nociceptive behavior
# Experimental: Thirty and 60 minutes after an i.p. injection of the compounds, mice were placed on a vertical wire mesh and the latency to move all four paws was recorded.
# hCB2 = hCB2 (Homo sapiens, UniProt P34972); test: Tango β-arrestin-2 recruitment assay, HTLA cells; type: cell-based; set-up: expressed in transfected cells; host or cells: HTLA (transient); details: for Emax: HTLA, read-out: hCB2 Tango ß-arrestin recruitment Emax [95% CI]
# Experimental: (§1) The Tango β-arrestin-2 recruitment assays were performed as described. In brief, HTLA cells were transiently transfected with human CB1R or CB2R Tango DNA construct overnight in DMEM supplemented with 10 % FBS, 100 μg ml−1 streptomycin and 100 U ml−1 penicillin. The transfected cells were then plated into poly-L-lysine-coated 384-well white clear-bottom cell culture plates in DMEM containing 1% dialysed FBS at a density of 10,000–15,000 cells per well. After incubation for 6 h, the plates were added with drug solutions prepared in DMEM containing 1% dialysed FBS for overnight incubation. On the day of assay, medium and drug solutions were removed and 20 μl per well of BrightGlo reagent (Promega) was added. The plates were further incubated for 20 min at room temperature and counted using the Wallac TriLux Microbeta counter (PerkinElmer). The results were analysed using GraphPad Prism 9.1. Each experiment was performed in triplicate and functional […] values were determined from the mean of three independent experiments.
# hCB1 [5] = target: T1, hCB1 (Homo sapiens, UniProt P21554); test: Lance Ultra cAMP accumulation assay (inhibition of forskolin-stimulated cAMP), CHO cells; type: cell-based; set-up: expressed in transfected cells; details: for Emax: CHO, read-out: hCB1 Lance Ultra cAMP Emax [95% CI]
# Experimental: The inhibition of forskolin-stimulated cAMP accumulation assays was carried out using PerkinElmer’s Lance Ultra cAMP kit following the manufacturer’s protocol. In brief, CHO cells stably expressing human CB1R were harvested by incubation with Versene (ThermoFisher Scientific, Waltham, MA) for 10 min, washed once with Hank’s Balanced Salt Solution, and resuspended in stimulation buffer at ~200 cells/μL density. The ligands at eight different concentrations (0.001–10,000 nM) in stimulation buffer (5 μL) containing forskolin (2 μM final concentration) were added to a 384-well plate followed by the cell suspension (5 μL; ~1000 cells/well). The plate was incubated for 30 min at room temperature. Eu-cAMP tracer (5 μL) and Ulight-anti-cAMP (5 μL) working solutions were then added to each well, and the plate was incubated at room temperature for an additional 60 min. Results were measured on a Perkin-Elmer EnVision plate reader. The EC50 values were determined by nonlinear regression analysis using Prism software (GraphPad Software, Inc., San Diego, CA) and are expressed as the mean of three experiments, each performed in triplicate.
# hCB1 [6] = target: T1, hCB1; test: Tango β-arrestin-2 recruitment assay, HTLA cells; type: cell-based; set-up: expressed in transfected cells; details: for Emax: HTLA, read-out: hCB1 Tango ß-arrestin recruitment Emax [95% CI]
# Experimental: as §1
# C56BL/6 mice [7] = test: Rotarod test of sedation; type: in vivo, mouse; details: for dose showing motor deficits: rotarod test
# Experimental: Hindpaw mechanical thresholds were determined with von Frey filaments using the up-down method. […] Each training has three sessions of five min. each.
# CB1 = target: T2, CB1 (Rattus norvegicus, UniProt P20272); test: Radioligand competition binding with [3H]-CP-55,940, rat brain membranes; details: for Emax: maximal radioligand displacement, read-out: rCB1 binding Emax [SEM]; for Ki: [3H]-CP-55,940 competition, rat brain membranes; for LE: ligand efficiency; for LLE: lipophilic ligand efficiency
# T2 construct: membrane preparations from rat brain (source of CB1); tissue Bioivt RAT00BRAINMZN; host or cells: rat brain
# Experimental: The results were analyzed using nonlinear regression to determine the IC50 and Ki values for each ligand (Prism by GraphPad Software, Inc., San Diego, CA). The Ki values are expressed as the mean of two to three experiments each performed in triplicate.
# Sequence of hCB2 (P34972 whole entry): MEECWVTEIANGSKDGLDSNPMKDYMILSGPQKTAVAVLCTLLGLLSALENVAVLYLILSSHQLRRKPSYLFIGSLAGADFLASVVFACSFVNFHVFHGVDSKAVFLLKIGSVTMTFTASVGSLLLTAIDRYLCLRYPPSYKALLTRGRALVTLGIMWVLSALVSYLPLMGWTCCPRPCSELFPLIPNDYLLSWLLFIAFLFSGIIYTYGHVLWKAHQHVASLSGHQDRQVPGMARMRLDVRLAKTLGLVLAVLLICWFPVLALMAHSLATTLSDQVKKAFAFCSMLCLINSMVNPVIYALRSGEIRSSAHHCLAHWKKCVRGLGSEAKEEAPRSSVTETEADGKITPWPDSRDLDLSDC
# T1 sequence (P21554 whole entry): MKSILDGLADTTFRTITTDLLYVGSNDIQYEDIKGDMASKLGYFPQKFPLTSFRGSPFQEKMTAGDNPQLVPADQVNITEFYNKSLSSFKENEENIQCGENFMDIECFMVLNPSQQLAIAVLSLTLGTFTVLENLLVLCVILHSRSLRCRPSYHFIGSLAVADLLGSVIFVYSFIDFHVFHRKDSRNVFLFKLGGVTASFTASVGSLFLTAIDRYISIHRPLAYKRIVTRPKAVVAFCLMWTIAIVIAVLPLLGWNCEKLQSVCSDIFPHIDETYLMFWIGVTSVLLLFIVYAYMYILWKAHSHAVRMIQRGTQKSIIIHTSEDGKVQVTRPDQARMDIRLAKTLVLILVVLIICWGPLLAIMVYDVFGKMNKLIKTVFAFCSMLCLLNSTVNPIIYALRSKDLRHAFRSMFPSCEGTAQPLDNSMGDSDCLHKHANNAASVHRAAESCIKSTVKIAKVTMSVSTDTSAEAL
# T2 sequence (P20272 whole entry): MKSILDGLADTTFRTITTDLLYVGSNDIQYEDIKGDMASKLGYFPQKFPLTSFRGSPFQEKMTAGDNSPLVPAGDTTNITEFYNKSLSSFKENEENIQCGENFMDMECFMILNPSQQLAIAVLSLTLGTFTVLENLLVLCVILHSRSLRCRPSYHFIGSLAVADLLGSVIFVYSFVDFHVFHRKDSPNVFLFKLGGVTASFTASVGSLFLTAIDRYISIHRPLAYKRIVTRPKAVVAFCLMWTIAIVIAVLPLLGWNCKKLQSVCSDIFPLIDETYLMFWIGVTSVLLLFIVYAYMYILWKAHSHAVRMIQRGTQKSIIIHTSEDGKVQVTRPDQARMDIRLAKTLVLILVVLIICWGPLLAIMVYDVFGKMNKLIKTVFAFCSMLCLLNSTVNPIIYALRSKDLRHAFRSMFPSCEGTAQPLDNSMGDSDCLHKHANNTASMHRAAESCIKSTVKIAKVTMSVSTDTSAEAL
Structure (SMILES),motor effect versus vehicle at analgesic doses (C56BL/6 mice [1]),effect on SNI-induced cold allodynia (number of paw withdrawals) (C56BL/6 mice [2]),conditioned place preference (C56BL/6 mice [3]),Emax (hCB2) [%],Emax (hCB1 [5]) [%],Emax (hCB1 [6]) [%],cataleptic behavior (C56BL/6 mice [4]),"concentration window between anti-allodynia or analgesia versus catalepsy and sedation, maximum (C56BL/6 mice [4])","concentration window between anti-allodynia or analgesia versus catalepsy and sedation, typical (C56BL/6 mice [4]; mouse, in vivo)","dose at which catalepsy was recorded (C56BL/6 mice [4]; mouse, in vivo)",EC50 (hCB1 [5]) [nM],dose showing motor deficits (C56BL/6 mice [7]) [mg/kg],Emax (CB1) [%],Ki (CB1; rCB1 binding Ki [95% CI]),Ki (CB1; rCB1 binding pKi [95% CI]) [nM],EC50 (hCB2) [nM],EC50 (hCB1 [6]) [nM],LE (CB1),LLE (CB1),other results
"CCCCCCC(C)(C)c1ccc([C@@H]2C[C@H](O)CC[C@H]2CCCO)c(O)c1 [CP-55,940, reference compound]",caused motor impairment in both the rotarod and open field tests,strongly reduced,may actually induce some aversion,100,85,100,,,,,,,,,,,,,,"dose at which catalepsy was recorded (C56BL/6 mice [4]; C56BL/6, mouse, in vivo, intraperitoneal): 0.2 mg/kg; window between analgesia and catalepsy (C56BL/6 mice [4]; mouse, in vivo): no window"
COC(=O)[C@@](C)(NC(=O)c1cc(C)n(-c2cccc(C(F)(F)F)c2)n1)c1cccs1 [‘1350],,strongly reduced,,,77,,did not induce cataleptic behavior,up to a twenty-fold,five- to ten-fold,> 1.0 mg/kg and 1 mg/kg,1.6,0.5,106,0.95 nM,1,,,,,"dose showing locomotor deficits (C56BL/6 mice [1]; open field test): 0.2 mg/kg; dose with significant anti-allodynia (C56BL/6 mice [2]; acetone test for cold pain): 0.05 mg/kg; window between anti-allodynia and catalepsy (C56BL/6 mice [4]; tail-flick and hot-plate, 0.1 mg/kg vs 1 mg/kg highest tested dose): at least a ten-fold; hCB1 Lance Ultra cAMP Emax [95% CI] (hCB1 [5]): 78%; window between heat-based response and sedation (C56BL/6 mice [7]; rotarod): only five-fold"
COC(=O)C(C)(NC(=O)c1cc(C)n(-c2cccc(C(F)(F)F)c2)n1)c1cccs1 (stereo not drawn) [‘4042],no significant differences,strongly reduced,does not induce preference,28,78,102,did not induce cataleptic behavior,up to a twenty-fold,five- to ten-fold,> 1.0 mg/kg,3.3,1.0,99,1.9 nM and 1.86 nM,,33.9,10.7,0.41,4.6,window between analgesia and both sedation and catalepsy (C56BL/6 mice [4]; typical): 5–10 fold
COC(=O)C(NC(=O)c1cc(C)n(-c2cccc(C(F)(F)F)c2)n1)c1cccs1 (stereo not drawn) [‘60154],,,,21,67,39,,,,,316,,110,44.3 nM,39.8,3340,794,0.36,3.5,
